The results in this text go back to ChEMBL document CHEMBL1133272, “A solid-phase synthesis for beta-turn mimetics of sialyl Lewis X” (Bioorg Med Chem Lett, 2000).

In one test the target is T1, E-selectin (Homo sapiens, UniProt P16581).
T1 sequence (P16581 whole entry): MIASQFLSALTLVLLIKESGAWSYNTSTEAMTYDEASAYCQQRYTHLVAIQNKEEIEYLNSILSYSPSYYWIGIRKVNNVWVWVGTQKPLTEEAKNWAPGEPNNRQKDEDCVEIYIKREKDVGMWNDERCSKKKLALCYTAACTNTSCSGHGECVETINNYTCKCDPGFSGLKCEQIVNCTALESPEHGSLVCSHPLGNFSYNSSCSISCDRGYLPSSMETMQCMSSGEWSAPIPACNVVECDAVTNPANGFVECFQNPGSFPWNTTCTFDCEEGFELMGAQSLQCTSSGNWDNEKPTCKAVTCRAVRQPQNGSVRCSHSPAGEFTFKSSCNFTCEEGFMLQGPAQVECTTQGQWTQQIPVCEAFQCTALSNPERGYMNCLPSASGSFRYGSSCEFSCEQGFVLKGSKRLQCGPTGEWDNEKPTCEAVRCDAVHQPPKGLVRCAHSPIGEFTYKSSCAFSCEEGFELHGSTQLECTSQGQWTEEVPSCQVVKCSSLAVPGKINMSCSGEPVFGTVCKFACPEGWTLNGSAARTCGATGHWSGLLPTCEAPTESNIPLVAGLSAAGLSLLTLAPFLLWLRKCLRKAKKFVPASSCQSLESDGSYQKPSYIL
The test can be described thus: In vitro inhibitory activity of compound was determined against Selectin E binding by ELISA assay. Background: In an ELISA, binding on a coated surface is turned into a signal by an enzyme label.

The next test addresses T2, L-selectin (Homo sapiens, UniProt P14151).
T2 sequence (P14151 whole entry): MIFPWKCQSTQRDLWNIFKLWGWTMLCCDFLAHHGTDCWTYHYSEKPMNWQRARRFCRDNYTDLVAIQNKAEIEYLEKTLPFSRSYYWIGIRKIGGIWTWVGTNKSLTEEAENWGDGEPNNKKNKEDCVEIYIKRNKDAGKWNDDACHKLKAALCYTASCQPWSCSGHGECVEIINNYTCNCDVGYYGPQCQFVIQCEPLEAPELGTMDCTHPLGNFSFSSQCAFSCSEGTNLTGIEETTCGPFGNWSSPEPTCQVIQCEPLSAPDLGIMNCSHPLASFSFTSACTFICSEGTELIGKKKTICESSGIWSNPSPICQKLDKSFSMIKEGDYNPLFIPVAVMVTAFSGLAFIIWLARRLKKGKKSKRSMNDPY
Description: In vitro inhibitory activity of compound was determined against Selectin L binding by ELISA assay.

A further test deals with T3, P-selectin (Homo sapiens, UniProt P16109).
T3 sequence (P16109 whole entry): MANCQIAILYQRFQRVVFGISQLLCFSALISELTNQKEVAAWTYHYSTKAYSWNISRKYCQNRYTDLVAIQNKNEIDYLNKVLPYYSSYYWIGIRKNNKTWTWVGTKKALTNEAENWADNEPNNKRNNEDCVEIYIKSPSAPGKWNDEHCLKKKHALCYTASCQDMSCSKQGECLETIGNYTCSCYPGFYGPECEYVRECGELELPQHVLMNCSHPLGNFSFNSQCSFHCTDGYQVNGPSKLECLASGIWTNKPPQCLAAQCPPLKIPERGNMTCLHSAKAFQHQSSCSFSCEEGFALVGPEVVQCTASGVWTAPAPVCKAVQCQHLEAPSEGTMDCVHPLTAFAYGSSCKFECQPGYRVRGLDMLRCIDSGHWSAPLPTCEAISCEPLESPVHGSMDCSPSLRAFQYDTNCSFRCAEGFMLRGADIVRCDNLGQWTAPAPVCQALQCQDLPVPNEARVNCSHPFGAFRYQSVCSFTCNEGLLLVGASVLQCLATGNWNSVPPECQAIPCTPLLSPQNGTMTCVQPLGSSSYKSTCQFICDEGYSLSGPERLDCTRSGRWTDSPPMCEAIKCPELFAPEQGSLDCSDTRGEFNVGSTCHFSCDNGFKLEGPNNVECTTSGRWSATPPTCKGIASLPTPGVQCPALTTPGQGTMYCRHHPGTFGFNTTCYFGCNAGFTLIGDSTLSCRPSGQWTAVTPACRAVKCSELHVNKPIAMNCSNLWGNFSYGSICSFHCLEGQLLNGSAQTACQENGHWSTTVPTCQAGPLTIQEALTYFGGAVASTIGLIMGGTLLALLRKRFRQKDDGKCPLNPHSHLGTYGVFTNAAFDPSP
The test can be described thus: In vitro inhibitory activity of compound was determined against Selectin P binding by ELISA assay.

pIC50: −log10 of the molar value.

Consider `CCCCCCCCCCCCCCC(CCCCCCCCCCCCCC)C(=O)N[C@@H](CO[C@@H]1O[C@@H](CO)[C@H](O)[C@H](O)[C@H]1O)C(=O)N[C@H](CCC(=O)O)C(=O)NC`, for which the pIC50 is 5.46 at E-selectin, 5.40 on L-selectin and 6.35 on P-selectin.

`CCCCCCCCCCCCCCC(CCCCCCCCCCCCCC)CN1CCCS[C@@H](CCC(=O)O)C(=O)N[C@H](CO[C@H]2O[C@H](CO)[C@@H](O)[C@@H](O)[C@@H]2O)C1=O`: the negative logarithm of the IC50 (pIC50) at E-selectin was less than 4.00; at L-selectin, 5.63; at P-selectin, 5.59.

For the molecule `CC(=O)N[C@H]1[C@H]([C@H](O)[C@H](O)CO)O[C@@](O[C@H]2[C@@H](O)[C@@H](CO)O[C@@H](O[C@@H]([C@H](O[C@@H]3O[C@@H](C)[C@@H](O)[C@@H](O)[C@@H]3O)[C@H](C=O)NC(C)=O)[C@H](O)CO)[C@@H]2O)(C(=O)O)C[C@@H]1O` [SIALYL LEWIS X], the pIC50 at L-selectin and on P-selectin was less than 3.00 each time.

In general, pIC50 refers to −log10 of the IC50, conventionally taken in molar units. High values mean a low IC50, low ones a high IC50.
